The SangsterLogP compilation

Test: method code SF-AS, from DOI: 10.1002/ps.2780410210

Row | Compound | logP
1 | Cc1cc(C)cc(C(=O)N(NC(=O)c2ccccc2)C(C)(C)C)c1 | 3.39
2 | CC(C)(C)N(NC(=O)c1ccccc1)C(=O)c1ccc(Cl)cc1Cl | 3.55
3 | CC(C)(C)N(NC(=O)c1ccccc1)C(=O)c1c(F)cccc1Cl | 2.34
4 | CC(C)(C)N(NC(=O)c1ccccc1)C(=O)c1c(Cl)cccc1Cl | 2.56
5 | CC(C)(C)N(NC(=O)c1ccccc1)C(=O)c1cccc(C(F)(F)F)c1 | 3.61
6 | CC(C)(C)N(NC(=O)c1ccccc1)C(=O)c1cc(F)c(F)c(F)c1F | 3.44
7 | CC(C)(C)N(NC(=O)c1ccccc1)C(=O)c1ccc(F)cc1 | 2.85
8 | CC(C)(C)N(NC(=O)c1ccccc1)C(=O)c1ccc([N+](=O)[O-])cc1 | 2.63
9 | COc1ccc(C(=O)N(NC(=O)c2ccccc2)C(C)(C)C)cc1 | 2.56
10 | CC(C)(C)N(NC(=O)c1ccccc1)C(=O)c1c(F)cccc1F | 2.16
11 | CC(C)(C)N(NC(=O)c1ccccc1)C(=O)c1ccc(C(F)(F)F)cc1 | 3.77
12 | CC(C)(C)N(NC(=O)c1ccccc1)C(=O)c1ccc(I)cc1 | 3.78
13 | COc1ccc(C(=O)N(NC(=O)c2ccccc2)C(C)(C)C)cc1OC | 2.09
14 | CC(C)(C)N(NC(=O)c1ccccc1)C(=O)c1ccc(Br)cc1 | 3.66
15 | CC(C)(C)N(NC(=O)c1ccccc1)C(=O)c1cccc(C#N)c1 | 2.34
16 | CC(C)(C)N(NC(=O)c1ccccc1)C(=O)c1ccc(Cl)c(Cl)c1 | 4.25
17 | CC(C)(C)N(NC(=O)c1ccccc1)C(=O)c1ccc(C#N)cc1 | 2.5
18 | CC(C)(C)N(NC(=O)c1ccccc1)C(=O)c1c(F)c(F)c(F)c(F)c1F | 3.25
19 | CC(C)(C)N(NC(=O)c1ccccc1)C(=O)c1ccccc1 | 2.45
20 | Cc1ccc(C(=O)N(NC(=O)c2ccccc2)C(C)(C)C)cc1 | 2.99
21 | CC(C)(C)N(NC(=O)c1ccccc1)C(=O)c1cccc(Cl)c1 | 3.28
22 | CC(C)(C)N(NC(=O)c1ccccc1)C(=O)c1cccc([N+](=O)[O-])c1 | 2.73
23 | CC(C)(C)N(NC(=O)c1ccccc1)C(=O)c1ccc(Cl)cc1 | 3.42
24 | COc1cccc(C(=O)N(NC(=O)c2ccccc2)C(C)(C)C)c1 | 2.56
25 | CC(C)(C)N(NC(=O)c1ccccc1)C(=O)c1cccc(I)c1 | 3.72
26 | Cc1ccc(C(=O)N(NC(=O)c2ccccc2)C(C)(C)C)cc1C | 3.34
27 | CC(C)(C)N(NC(=O)c1ccccc1)C(=O)c1ccccc1C(F)(F)F | 2.85
28 | CC(C)(C)N(NC(=O)c1ccccc1)C(=O)c1cccc(Br)c1 | 3.49

Further lines, results first:

Row | logP | Compound
29 | 2.78 | CC(C)(C)N(NC(=O)c1ccccc1)C(=O)c1cccc(F)c1
30 | 2.75 | Cc1ccccc1C(=O)N(NC(=O)c1ccccc1)C(C)(C)C
31 | 3.18 | Cc1ccc(C(=O)N(NC(=O)c2ccccc2)C(C)(C)C)c(C)c1
32 | 3.1 | Cc1cccc(C(=O)N(NC(=O)c2ccccc2)C(C)(C)C)c1C
33 | 2.69 | CC(C)(C)N(NC(=O)c1ccccc1)C(=O)c1ccccc1Br
34 | 2.79 | Cc1cccc(C(=O)N(NC(=O)c2ccccc2)C(C)(C)C)c1
35 | 3.41 | CC(C)(C)N(NC(=O)c1ccccc1)C(=O)c1cccc(Cl)c1Cl
36 | 2.38 | CC(C)(C)N(NC(=O)c1ccccc1)C(=O)c1ccccc1F
37 | 3.36 | CC(C)(C)N(NC(=O)c1ccccc1)C(=O)c1cc(Cl)ccc1Cl
38 | 2.6 | CSc1ccccc1C(=O)N(NC(=O)c1ccccc1)C(C)(C)C
39 | 2.83 | CC(C)(C)N(NC(=O)c1ccccc1)C(=O)c1ccccc1I
40 | 2.27 | CC(C)(C)N(NC(=O)c1ccccc1)C(=O)c1ccccc1[N+](=O)[O-]
41 | 3.25 | Cc1ccc(C)c(C(=O)N(NC(=O)c2ccccc2)C(C)(C)C)c1
42 | 2.96 | CCc1ccccc1C(=O)N(NC(=O)c1ccccc1)C(C)(C)C
43 | 3.57 | Cc1c(Cl)cccc1C(=O)N(NC(=O)c1ccccc1)C(C)(C)C
44 | 2.04 | COc1ccccc1C(=O)N(NC(=O)c1ccccc1)C(C)(C)C
